Key:
[1] = tested on: αvβ6; details: cited from earlier work
Excerpt: The two molecules 6 and 7 were conjugated to the nonapeptide cyclo-(FRGDLAFp(NMe)K)[29] (p = D-Pro; (NMe)K = N-methyl-Lys) under mild conditions, without the assistance of any activation agent, producing the two conjugates (11 and 12, Fig. 3). Noteworthy, the arginine-glycine-aspartate (RGD) sequence in cyclic peptides is known to selectively bind αv integrins. […] Moreover, the presence of the two non-proteinogenic amino acids, na ...

[2] = target: T1, integrin αvβ6 (pancreatic cancer BxPC-3 cells) (Homo sapiens, UniProt P06756+P18564); assay: Competitive binding assay (gamma counting, unlabelled THP-peptide vs [68Ga]Ga-labelled peptide) on BxPC-3 cells; type: cell-based; details: for Span (best-fit value): Std. Error 0.01175 (11), 0.04901 (12), 95% CI 0.04041 to 0.08849 (11), 0.1021 to 0.3002 (12); for log IC50: non-linear regression, GraphPad Prism 9, inhibitor 0.1-5000 nM, 1 h, 37 °C, n = 4, value ± as printed in method; for LogIC50 (best-fit value): Std. Error 0.1982 (11), 0.2904 (12), 95% CI -7.123 to -6.312 (11), -7.167 to -5.993 (12); for HillSlope (best-fit value): Std. Error 0.5820 (11), 0.3994 (12), 95% CI -2.429 to -0.04897 (11), -1.659 to -0.04442 (12)
T1 construct: endogenous in cells; host or cells: BxPC-3 pancreatic cancer cells
T1 sequence (P06756 31-889 limits assumed): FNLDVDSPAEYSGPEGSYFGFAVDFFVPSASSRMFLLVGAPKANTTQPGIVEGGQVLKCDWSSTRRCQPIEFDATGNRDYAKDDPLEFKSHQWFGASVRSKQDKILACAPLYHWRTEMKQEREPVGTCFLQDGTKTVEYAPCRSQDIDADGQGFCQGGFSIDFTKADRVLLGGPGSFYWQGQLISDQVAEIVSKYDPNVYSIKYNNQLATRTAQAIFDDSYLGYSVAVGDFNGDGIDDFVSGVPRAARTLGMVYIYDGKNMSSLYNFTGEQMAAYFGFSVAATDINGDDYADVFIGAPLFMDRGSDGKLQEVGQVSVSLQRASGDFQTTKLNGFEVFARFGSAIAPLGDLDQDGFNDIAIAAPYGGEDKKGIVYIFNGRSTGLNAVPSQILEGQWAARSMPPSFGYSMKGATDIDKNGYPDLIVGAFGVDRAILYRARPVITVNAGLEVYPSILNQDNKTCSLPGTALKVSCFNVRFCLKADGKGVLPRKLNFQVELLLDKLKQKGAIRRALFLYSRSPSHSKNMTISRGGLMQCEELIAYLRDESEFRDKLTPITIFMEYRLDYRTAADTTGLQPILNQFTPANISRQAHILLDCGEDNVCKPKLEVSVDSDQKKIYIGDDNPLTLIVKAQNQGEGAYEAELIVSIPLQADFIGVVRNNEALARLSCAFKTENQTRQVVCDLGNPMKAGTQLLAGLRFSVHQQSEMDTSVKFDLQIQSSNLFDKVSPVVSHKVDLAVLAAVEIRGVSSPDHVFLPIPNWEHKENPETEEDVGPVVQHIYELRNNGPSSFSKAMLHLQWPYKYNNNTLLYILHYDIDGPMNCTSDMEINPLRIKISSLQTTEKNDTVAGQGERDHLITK
T1 sequence (P06756 891-1048 partner limits assumed): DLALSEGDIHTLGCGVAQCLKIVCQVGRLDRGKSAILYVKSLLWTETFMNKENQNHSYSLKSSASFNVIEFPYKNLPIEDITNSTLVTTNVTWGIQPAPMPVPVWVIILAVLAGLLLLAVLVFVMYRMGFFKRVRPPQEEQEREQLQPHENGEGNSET
T1 sequence (P18564 22-788): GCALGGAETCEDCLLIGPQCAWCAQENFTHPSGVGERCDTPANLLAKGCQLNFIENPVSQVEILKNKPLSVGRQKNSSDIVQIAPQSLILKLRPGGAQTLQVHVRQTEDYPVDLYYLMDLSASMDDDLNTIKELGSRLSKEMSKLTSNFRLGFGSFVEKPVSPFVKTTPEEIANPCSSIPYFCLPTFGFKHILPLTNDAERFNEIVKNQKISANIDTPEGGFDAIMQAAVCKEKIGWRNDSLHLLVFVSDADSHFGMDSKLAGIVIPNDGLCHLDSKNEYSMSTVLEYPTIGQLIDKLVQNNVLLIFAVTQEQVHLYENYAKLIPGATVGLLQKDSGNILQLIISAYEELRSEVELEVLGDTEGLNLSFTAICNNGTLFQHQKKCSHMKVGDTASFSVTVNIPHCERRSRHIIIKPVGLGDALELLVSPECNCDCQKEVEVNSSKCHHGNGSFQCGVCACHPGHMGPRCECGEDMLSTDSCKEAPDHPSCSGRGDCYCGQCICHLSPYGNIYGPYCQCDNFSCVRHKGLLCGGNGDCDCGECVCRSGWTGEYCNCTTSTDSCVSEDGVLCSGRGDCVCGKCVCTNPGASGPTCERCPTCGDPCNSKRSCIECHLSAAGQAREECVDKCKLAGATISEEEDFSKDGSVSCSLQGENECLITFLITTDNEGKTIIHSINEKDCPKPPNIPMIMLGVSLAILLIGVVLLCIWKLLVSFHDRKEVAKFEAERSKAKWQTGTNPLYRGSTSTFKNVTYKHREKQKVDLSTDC
Procedure: Binding of [^68Ga]Ga-Integrin αvβ6-peptide-THP (11 and 12) to αvβ6 integrin was determined in the presence of increasing concentrations of unlabelled THP-peptide conjugate (Fig. 4).
BxPC-3 were plated in 12-well plates at a density of 5 × 10^5 cells per well in 1 mL of complete culture medium, cultured overnight at 37 °C and 5% CO2. Radiolabelling with ^68Ga was done as described above, and a solution containing 15 MBq in 1.0 mL was prepared by dilution with distilled H2O. Eleven inhibitor (unlabelled peptide) concentrations were tested to estimate the IC50 value at 0.1, 0.5, 1, 5, 10, 50, 100, 250, 500, 1000, and 5000 nM. Four wells were used for each concentration (n = 4), prepared in 500 μL of complete media. Following the addition of the inhibitor, 20 μL of the radiolabelled peptide solution was added to each well, corresponding to 300 kbq per well (33 nM of the labelled peptide per well). The cells were then incubated for an hour at the same above-mentioned conditions. Following incubation, media were removed from the wells, and the cells were washed twice with cold PBS (500 μL per washing). For each well, the media and the washings were collected together. After the second wash, 500 μL of 1 M NaOH solution was added to each well to lyse the cells, and cell lysates were retrieved 10 minutes later ([…]). A final wash with PBS (500 μL per well) was undertaken and collected in the same tube as the cell lysate. All tubes (containing either medium and washings or lysate and washings) were gamma-counted using a Wallac 1282 Compugamma Universal Gamma Counter. The resulting values were analyzed using Graphpad Prism 9 software, and a non-linear regression curve was generated, from which the IC50 values (log IC50: −6.72 ± 0.20 for 11 and −6.58 ± 0.29 for 12) were obtained.

[3] = binding curve, nonlinear regression

| Substance | potency and selectivity for αvβ6 (in words) [1] | IC50 ([1]; αvβ6) [nM] | Span (best-fit value) [2, 3] | log IC50 [2] | LogIC50 (best-fit value) ([2]; nonlinear regression) | HillSlope (best-fit value) ([2]; nonlinear regression) | Top (best-fit value) ([2]; binding curve, nonlinear regression, Std. Error 0.004453 (11), 0.01334 (12), 95% CI 0.1175 to 0.1358 (11), 0.2906 to 0.3446 (12)) | Bottom (best-fit value) ([2]; binding curve, nonlinear regression, Std. Error 0.01017 (11), 0.04302 (12), 95% CI 0.04141 to 0.08300 (11), 0.02951 to 0.2034 (12)) |
| --- | --- | --- | --- | --- | --- | --- | --- | --- |
| cyclo-(FRGDLAFp(NMe)K) (head to tail) [compound 10] | potent and selective binder for αvβ6 | 0.26 |  |  |  |  |  |  |
| cyclo-(FRGDLAFp(NMe)K)-THPs (head to tail) [compound 11, cyclo-(FRGDLAFp(NMe)K) conjugated to THP-glutaric (6)] |  |  | 0.06445 | −6.72 ± 0.20 | -6.717 | -1.239 |  |  |
| cyclo-(FRGDLAFp(NMe)K)-THPs (head to tail) [compound 12, cyclo-(FRGDLAFp(NMe)K) conjugated to THP-adipic (7)] |  |  | 0.2012 | −6.58 ± 0.29 | -6.580 | -0.8516 | 0.3176 | 0.1165 |
